Assays:
Adenosine A2A = Adenosine A2A (Homo sapiens, UniProt P29274); format: binding; details: 10 μM compound, Hit Profile Panel
GABAA, Muscimol, Central = format: binding; details: rat; 10 μM compound; Hit Profile Panel
Opiate μ(OP3, MOP) = Opiate μ(OP3, MOP) (Homo sapiens, UniProt P35372); format: binding; details: 10 μM compound, Hit Profile Panel
Potassium Channel (KATP) = Potassium Channel (KATP) (Cricetus cricetus, UniProt Q09427); format: binding; details: hamster; 10 μM compound; Hit Profile Panel
Sequence of Potassium Channel (KATP) (Q09427 whole entry): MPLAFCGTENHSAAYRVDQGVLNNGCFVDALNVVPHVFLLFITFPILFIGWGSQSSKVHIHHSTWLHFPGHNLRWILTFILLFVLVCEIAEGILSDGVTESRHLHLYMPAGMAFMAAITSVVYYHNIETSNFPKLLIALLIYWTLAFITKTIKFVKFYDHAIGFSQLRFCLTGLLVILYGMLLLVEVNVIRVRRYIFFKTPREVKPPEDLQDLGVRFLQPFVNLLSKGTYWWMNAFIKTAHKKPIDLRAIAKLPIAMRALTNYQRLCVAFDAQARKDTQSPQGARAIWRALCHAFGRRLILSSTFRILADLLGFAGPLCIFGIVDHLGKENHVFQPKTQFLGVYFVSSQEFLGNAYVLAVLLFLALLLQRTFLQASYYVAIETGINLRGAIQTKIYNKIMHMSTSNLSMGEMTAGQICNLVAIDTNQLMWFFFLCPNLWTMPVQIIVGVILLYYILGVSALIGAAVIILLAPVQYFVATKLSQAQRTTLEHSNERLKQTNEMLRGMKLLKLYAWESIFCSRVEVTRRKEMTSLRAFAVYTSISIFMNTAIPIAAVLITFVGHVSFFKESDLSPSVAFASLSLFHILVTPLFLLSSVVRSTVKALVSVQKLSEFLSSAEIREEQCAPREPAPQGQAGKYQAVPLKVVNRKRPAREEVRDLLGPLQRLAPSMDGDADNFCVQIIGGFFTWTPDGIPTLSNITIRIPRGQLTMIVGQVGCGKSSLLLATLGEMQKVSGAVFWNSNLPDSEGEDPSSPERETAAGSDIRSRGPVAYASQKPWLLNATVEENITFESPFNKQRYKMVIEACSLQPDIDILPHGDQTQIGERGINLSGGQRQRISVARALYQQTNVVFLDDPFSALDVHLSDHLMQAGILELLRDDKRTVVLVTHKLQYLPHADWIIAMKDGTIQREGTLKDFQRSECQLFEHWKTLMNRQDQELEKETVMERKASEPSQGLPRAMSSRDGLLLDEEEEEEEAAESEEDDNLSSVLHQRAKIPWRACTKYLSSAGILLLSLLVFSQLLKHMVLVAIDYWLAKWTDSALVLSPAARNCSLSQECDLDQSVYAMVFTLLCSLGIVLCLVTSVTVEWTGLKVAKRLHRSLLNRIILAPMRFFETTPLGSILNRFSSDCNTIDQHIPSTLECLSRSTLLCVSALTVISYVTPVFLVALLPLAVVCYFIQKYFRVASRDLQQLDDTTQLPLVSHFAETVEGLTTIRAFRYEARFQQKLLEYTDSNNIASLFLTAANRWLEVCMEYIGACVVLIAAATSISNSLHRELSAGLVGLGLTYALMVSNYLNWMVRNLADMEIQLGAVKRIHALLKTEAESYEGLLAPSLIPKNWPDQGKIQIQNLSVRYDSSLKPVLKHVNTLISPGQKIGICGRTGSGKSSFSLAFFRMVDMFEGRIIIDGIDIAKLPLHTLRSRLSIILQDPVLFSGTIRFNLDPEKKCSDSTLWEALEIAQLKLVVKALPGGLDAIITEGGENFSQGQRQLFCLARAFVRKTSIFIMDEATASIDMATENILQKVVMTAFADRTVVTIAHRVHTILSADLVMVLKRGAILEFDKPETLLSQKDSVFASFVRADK

[1] = system: GABAA, Flunitrazepam, Central; format: binding; details: rat; 10 μM compound; Hit Profile Panel
CYP3A4 = molecular target: T1, CYP3A4 (Homo sapiens, UniProt P08684); experiment: CYP450 inhibition; format: biochemical; details: 10 μM compound, Hit Profile Panel; for inhibition at 10 µM: read-out: % Inhibition, CYP450, 3A4
T1 construct: purchased BD Gentest Corp., Woburn, Mass
T1 sequence (P08684 whole entry): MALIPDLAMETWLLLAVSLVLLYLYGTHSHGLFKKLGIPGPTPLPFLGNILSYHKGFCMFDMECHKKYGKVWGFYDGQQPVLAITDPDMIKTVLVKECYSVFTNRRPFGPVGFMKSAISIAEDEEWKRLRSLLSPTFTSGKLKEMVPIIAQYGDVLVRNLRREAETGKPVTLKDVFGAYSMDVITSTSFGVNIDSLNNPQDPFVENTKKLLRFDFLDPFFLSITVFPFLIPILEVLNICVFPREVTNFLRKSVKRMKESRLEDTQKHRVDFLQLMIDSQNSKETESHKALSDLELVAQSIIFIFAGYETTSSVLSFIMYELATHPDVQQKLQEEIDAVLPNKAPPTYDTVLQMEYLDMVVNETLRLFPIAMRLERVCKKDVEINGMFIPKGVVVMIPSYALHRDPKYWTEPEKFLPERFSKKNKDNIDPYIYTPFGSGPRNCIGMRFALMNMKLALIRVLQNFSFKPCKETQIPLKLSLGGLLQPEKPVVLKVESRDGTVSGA
Experimental: (§1) Because inhibition of cytochrome P450 (CYP450) enzymes in vitro is predictive of potential drug interactions in vivo, CYP450 inhibition was measured using commercially available Human Cytochrome P450 kits (BD Gentest Corp., Woburn, Mass.) for the major CYP450s: CYP3A4 and CYP2D6. The assays were performed according to the manufacturer's instructions.

CYP2D6 = molecular target: T2, CYP2D6 (Homo sapiens, UniProt P10635); experiment: CYP450 inhibition; format: biochemical; details: 10 μM compound, Hit Profile Panel; for inhibition at 10 µM: read-out: % Inhibition, CYP450, 2D6
T2 construct: purchased BD Gentest Corp., Woburn, Mass
T2 sequence (P10635 whole entry): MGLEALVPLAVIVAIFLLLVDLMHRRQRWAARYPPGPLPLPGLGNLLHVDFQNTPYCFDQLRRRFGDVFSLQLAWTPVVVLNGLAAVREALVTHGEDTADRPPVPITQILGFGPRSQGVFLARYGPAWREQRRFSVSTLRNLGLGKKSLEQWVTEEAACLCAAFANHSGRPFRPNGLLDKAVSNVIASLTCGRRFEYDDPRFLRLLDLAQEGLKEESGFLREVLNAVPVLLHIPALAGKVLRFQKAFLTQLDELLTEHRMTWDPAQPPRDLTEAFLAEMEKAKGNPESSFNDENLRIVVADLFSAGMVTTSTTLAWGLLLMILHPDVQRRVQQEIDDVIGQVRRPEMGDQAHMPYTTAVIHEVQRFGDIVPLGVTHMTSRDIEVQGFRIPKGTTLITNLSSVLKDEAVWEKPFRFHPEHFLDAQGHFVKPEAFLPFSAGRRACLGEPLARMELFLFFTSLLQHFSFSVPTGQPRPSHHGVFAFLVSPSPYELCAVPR
Experimental: as §1

Adrenergic α1B = molecular target: T3, Adrenergic α1B (Rattus norvegicus, UniProt P15823); format: binding; details: 10 μM compound, Hit Profile Panel
T3 sequence (P15823 1-515): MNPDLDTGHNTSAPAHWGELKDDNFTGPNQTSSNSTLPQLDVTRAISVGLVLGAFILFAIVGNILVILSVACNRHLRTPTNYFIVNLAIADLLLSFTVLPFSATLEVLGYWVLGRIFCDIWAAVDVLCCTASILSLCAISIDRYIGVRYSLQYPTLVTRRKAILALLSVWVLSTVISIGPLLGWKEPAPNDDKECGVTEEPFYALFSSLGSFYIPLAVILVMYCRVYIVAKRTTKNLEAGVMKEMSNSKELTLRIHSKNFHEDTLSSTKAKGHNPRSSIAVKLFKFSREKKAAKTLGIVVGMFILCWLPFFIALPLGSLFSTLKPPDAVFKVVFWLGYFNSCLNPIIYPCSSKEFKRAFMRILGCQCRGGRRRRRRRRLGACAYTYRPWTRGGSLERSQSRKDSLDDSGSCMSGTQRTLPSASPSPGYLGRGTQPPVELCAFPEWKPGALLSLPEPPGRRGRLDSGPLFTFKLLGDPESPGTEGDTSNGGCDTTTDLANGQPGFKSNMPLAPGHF

Histamine, H1 = Histamine, H1 (Homo sapiens, UniProt P35367); format: binding; details: 10 μM compound, Hit Profile Panel
Sequence of Histamine, H1 (P35367 whole entry): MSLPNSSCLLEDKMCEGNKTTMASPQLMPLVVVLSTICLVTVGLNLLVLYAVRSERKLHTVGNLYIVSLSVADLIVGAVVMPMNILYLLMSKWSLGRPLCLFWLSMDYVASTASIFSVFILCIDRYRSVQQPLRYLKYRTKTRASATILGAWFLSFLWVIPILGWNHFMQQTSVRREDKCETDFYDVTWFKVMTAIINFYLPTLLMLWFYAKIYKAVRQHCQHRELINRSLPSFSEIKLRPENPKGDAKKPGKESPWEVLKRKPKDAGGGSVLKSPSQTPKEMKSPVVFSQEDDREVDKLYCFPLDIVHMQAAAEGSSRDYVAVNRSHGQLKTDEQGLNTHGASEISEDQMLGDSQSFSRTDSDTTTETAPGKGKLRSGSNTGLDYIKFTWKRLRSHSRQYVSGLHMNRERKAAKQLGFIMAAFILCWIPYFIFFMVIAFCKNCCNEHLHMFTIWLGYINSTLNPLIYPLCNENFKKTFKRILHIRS

Muscarinic M2 = molecular target: T4, Muscarinic M2 (Homo sapiens, UniProt P08172); format: binding; details: 10 μM compound, Hit Profile Panel
T4 sequence (P08172 1-466): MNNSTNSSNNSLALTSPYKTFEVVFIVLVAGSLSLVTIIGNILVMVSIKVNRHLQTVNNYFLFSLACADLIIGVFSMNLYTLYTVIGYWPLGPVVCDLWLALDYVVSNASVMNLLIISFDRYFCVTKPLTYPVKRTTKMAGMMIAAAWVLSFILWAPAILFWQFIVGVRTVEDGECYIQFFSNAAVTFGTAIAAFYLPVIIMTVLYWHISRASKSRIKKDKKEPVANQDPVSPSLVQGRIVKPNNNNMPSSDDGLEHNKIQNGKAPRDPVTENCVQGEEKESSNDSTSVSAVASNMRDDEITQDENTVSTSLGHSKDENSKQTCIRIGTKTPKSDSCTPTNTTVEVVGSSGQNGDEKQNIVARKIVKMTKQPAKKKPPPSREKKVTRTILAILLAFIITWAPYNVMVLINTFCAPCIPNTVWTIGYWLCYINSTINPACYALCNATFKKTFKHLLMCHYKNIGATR

Adenosine A1 = molecular target: T5, Adenosine A1 (Homo sapiens, UniProt P30542); format: binding; details: 10 μM compound, Hit Profile Panel
T5 sequence (P30542 1-326): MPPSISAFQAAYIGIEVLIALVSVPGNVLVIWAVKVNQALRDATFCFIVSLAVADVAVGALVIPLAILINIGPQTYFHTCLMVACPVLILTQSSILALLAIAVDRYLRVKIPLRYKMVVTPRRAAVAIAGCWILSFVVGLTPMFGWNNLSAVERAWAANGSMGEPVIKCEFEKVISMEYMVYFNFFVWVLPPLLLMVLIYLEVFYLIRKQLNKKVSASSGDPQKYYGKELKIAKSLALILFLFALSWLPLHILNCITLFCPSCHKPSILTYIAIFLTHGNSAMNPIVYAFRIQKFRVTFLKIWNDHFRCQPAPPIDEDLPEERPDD

Sigma σ1 = Sigma σ1 (Homo sapiens, UniProt Q99720); format: binding; details: 10 μM compound, Hit Profile Panel
Sequence of Sigma σ1 (Q99720 whole entry): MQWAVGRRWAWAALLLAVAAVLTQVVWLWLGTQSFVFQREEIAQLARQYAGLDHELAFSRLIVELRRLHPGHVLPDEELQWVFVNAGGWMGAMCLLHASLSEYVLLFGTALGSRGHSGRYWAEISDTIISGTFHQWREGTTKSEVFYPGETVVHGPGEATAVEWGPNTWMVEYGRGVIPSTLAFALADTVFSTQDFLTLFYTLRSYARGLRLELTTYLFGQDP

Phorbol Ester = format: binding; details: mouse; 10 μM compound; Hit Profile Panel
Adrenergic β2 = Adrenergic β2 (Homo sapiens, UniProt P07550); format: binding; details: 10 μM compound, Hit Profile Panel
Sequence of Adrenergic β2 (P07550 whole entry): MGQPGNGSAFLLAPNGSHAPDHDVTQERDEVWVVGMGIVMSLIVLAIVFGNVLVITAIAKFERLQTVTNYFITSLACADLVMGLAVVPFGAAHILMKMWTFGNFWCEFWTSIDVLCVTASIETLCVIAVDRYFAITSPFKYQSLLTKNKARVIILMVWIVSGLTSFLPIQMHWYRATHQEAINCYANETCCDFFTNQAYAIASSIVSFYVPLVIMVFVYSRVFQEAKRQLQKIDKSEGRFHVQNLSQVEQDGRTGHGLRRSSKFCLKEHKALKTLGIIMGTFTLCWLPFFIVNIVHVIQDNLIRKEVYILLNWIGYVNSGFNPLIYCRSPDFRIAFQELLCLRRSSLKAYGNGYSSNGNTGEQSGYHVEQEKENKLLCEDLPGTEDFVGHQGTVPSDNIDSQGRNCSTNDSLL

Dopamine D1 = Dopamine D1 (Homo sapiens, UniProt P21728); format: binding; details: 10 μM compound, Hit Profile Panel
Sequence of Dopamine D1 (P21728 whole entry): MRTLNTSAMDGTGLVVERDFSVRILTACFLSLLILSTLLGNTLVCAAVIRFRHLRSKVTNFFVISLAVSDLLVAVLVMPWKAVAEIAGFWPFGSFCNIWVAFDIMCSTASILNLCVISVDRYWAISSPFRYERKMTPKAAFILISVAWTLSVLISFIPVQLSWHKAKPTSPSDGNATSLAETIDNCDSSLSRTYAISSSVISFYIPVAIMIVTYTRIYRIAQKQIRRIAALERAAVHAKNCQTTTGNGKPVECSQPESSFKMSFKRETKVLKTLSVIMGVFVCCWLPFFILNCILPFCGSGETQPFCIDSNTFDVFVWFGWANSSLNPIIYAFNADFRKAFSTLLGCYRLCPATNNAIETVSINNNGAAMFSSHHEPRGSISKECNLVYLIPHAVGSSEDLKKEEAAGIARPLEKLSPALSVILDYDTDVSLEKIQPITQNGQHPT

Sequence of Adenosine A2A (P29274 whole entry): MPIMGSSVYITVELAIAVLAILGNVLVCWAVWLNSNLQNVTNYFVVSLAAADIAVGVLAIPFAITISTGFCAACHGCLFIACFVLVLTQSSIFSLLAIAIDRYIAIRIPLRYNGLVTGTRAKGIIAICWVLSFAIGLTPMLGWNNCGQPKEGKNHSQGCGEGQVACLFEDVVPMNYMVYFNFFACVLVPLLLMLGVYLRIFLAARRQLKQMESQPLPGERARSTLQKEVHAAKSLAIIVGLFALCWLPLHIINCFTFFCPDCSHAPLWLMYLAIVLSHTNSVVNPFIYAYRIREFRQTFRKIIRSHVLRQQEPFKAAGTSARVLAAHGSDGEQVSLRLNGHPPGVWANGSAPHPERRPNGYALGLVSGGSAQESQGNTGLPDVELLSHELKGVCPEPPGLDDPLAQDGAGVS
Sequence of Opiate μ(OP3, MOP) (P35372 whole entry): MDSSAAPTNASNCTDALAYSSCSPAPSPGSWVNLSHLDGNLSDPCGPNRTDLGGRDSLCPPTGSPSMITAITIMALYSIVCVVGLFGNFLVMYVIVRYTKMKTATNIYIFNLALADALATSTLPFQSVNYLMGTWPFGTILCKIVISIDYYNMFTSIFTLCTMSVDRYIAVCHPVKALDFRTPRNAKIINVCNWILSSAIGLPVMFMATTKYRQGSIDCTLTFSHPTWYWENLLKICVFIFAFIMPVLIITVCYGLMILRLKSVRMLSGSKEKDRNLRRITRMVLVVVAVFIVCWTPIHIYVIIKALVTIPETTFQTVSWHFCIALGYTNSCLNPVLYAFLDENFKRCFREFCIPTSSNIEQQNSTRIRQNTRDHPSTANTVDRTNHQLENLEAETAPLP

| Structure (SMILES) | % Inhibition, GABAA, Muscimol, Central (GABAA, Muscimol, Central) [%] | % Inhibition, GABAA, Flunitrazepam, Central [1] [%] | % Inhibition, Phorbol Ester (Phorbol Ester) [%] | inhibition at 10 µM (Adenosine A2A) [%] | inhibition at 10 µM (Opiate μ(OP3, MOP)) [%] | inhibition at 10 µM (Potassium Channel (KATP)) [%] | inhibition at 10 µM (CYP3A4) [%] | inhibition at 10 µM (CYP2D6) [%] | inhibition at 10 µM (Adrenergic α1B) [%] | inhibition at 10 µM (Histamine, H1) [%] | inhibition at 10 µM (Muscarinic M2) [%] | inhibition at 10 µM (Adenosine A1) [%] | inhibition at 10 µM (Sigma σ1) [%] | inhibition at 10 µM (Adrenergic β2) [%] | inhibition at 10 µM (Dopamine D1) [%] | also measured |
| --- | --- | --- | --- | --- | --- | --- | --- | --- | --- | --- | --- | --- | --- | --- | --- | --- |
| O=C(Nc1nnc(-c2ccc(F)cc2)o1)N1CCc2ccccc2C1 [MBX-4132] | 1 | 13 | 4 | – | – | – | – | – | – | – | – | – | – | – | – | % Inhibition, Adenosine A2A (Adenosine A2A): 43%; % Inhibition, Opiate μ(OP3, MOP) (Opiate μ(OP3, MOP)): 74%; % Inhibition, Potassium Channel (KATP) (Potassium Channel (KATP)): 10%; % Inhibition, CYP450, 3A4 (CYP3A4): 7%; % Inhibition, CYP450, 2D6 (CYP2D6): 10%; % Inhibition, Adrenergic α1B (Adrenergic α1B): 21%; % Inhibition, Histamine, H1 (Histamine, H1): 17%; % Inhibition, Muscarinic M2 (Muscarinic M2): 13%; % Inhibition, Adenosine A1 (Adenosine A1): 48%; % Inhibition, Sigma σ1 (Sigma σ1): −4%; % Inhibition, Adrenergic β2 (Adrenergic β2): 36%; % Inhibition, Dopamine D1 (Dopamine D1): −8% |
| O=C(Nc1nnc(-c2ccc(F)cc2)o1)N1CC=C(C(F)(F)F)CC1 [compound 4347] | 4 | 22 | 7 | 3 | -14 | 2 | 9 | 9 | 7 | 22 | 2 | -4 | -2 | 8 | 5 | – |
| O=C(Nc1nnc(-c2ccc(F)cc2)o1)c1ccc(OC2CCCCC2)cc1 [compound 4292] | −4 | −1 | 2 | 11 | 4 | 8 | 4 | 2 | 3 | -8 | 0 | 8 | 10 | 6 | 17 | – |
